Experiments:
[1] = Colorimetric cytotoxicity test, HEK293A PARP1-/-; format: cell-based; conditions: human, PARP1-/- HEK293A cells; PARP1-/- HEK293A cell line; read-out: CC50 of Tpc
Description: In our previous works, we checked the cytotoxic effect of Tpc and the TDP1 inhibitors—monoterpene 3-carene-derived compounds [48, 49] and UA combined with monoterpenoids, measured separately and jointly with Tpc—using a panel of HEK293FT and HEK293A Tdp1 knockout isogenic clones. […] The data on the HEK293FT mutants were of low reproducibility, which is why we decided to change the basic cell line to HEK293A [49]. In this work, we created new PARP1-/- HEK293A cells using the CRISPR–Cas9 approach (Figure S27). […] We checked the intrinsic cytotoxicity of the leader compound (10a) on the HEK293 wild type and TDP1-/- and PARP1-/- cell lines using a colorimetric test (Figure 6). […] There was no difference between the WT and mutant cells.
Cytotoxicity of the compounds was examined against human cell lines HEK293A (human embryonic kidney)—WT, TDP1 deficient (Tdp1-/-), PARP1 deficient (PARP1-/-), and HeLa (cervical cancer) using an EZ4U colorimetric test (Biomedica, Vienna, Austria). […] After the formation of a 30–50% monolayer, the tested compounds were added to the medium, and the cell culture was monitored for 3 days. […] The compound concentration that caused 50% cell growth inhibition was determined using OriginPro 8.6.0 software (OriginLab, Northampton, MA, USA). […]

[2] = EZ4U colorimetric cytotoxicity test, HEK293A; format: cell-based; conditions: human
Description: (§1) The low intrinsic cytotoxicity of the additional drug component in the clinically used anticancer cocktails with traditional drugs is very important for treatment. This approach in chemotherapy can reduce the potential resulting toxic load on the body in the case of a combined action of these inhibitors on the activity of several targets. […] The effects of the tested compounds on cell survival are shown on Figure 4 and the CC50 values for three cell lines are shown in Table 1. The intrinsic cytotoxicity of a number of the studied compounds is quite high, namely, they have close IC50 values against the TDP1 and CC50 values on one or several studied cell lines. Most of the compounds generally were more toxic for the HEK293FT and HeLa cell lines than for the HEK293A cell line (Table 1 and Figure 4). The cytotoxicity of the three leader compounds, 7g, 10a, and 7h, was quite high. […] Compound 10b was one of the least toxic among the ten tested compounds.
(§2) Cytotoxicity of the compounds was examined against human cell lines HEK293A (human embryonic kidney)—WT, TDP1 deficient (Tdp1-/-), PARP1 deficient (PARP1-/-), and HeLa (cervical cancer) using an EZ4U colorimetric test (Biomedica, Vienna, Austria). The HEK293A cell line was obtained from Thermo Fisher Scientific (Waltham, MA, USA), and the HeLa cell line was obtained from the Russian Cell Culture Collection (RCCC) Institute of Cytology RAS, St. Petersburg, Russia. The cells were grown in DMEM/F12 medium (Gibco, Thermo Fisher Scientific, Waltham, MA, USA), with 1x GlutaMAX (Gibco, Thermo Fisher Scientific, Waltham, MA, USA), 50 IU/mL penicillin, 50 μg/mL streptomycin (MP Biomedicals), and in the presence of 10% fetal bovine serum (Biolot, Saint-Petersburg, Russia) in a 5% CO2 atmosphere. Cells were grown in the presence of 1% DMSO in the control wells. After the formation of a 30–50% monolayer, the tested compounds were added to the medium, and the cell culture was monitored for 3 days. The values were normalized to their own control in each case. At least three independent experiments were carried out. The 50% cytotoxic concentration (CC50) was defined as the compound concentration that reduced the cell viability by 50% when compared to the untreated controls. The compound concentration that caused 50% cell growth inhibition was determined using OriginPro 8.6.0 software (OriginLab, Northampton, MA, USA). The measurements were carried out in three independent experiments.

[3] = test system: HeLa cells; experiment: Cytotoxicity of the combination of 10a and topotecan on HeLa cells; format: cell-based, human; conditions: Homo sapiens; HeLa, Tpc titrated with fixed 5 μM 10a; read-out: CC50 of Tpc with 10a
Description: TDP1 is able to cleave the TOP1–DNA complex, thus preventing the action of Tpc and decreasing the efficiency of this clinically used drug. The inhibition of TDP1 activity can increase the efficiency of Tpc. Next, we checked the cytotoxic effect of the combination of Tpc and examined the TDP1 inhibitors compared to Tpc alone on HeLa cells and HEK293 cells.
We observed the suppressed cell growth in the joint presence of the TDP1 inhibitor and Tpc on HeLa cells compared to Tpc alone (Figure 5). We observed the synergistic effect both when we titrated 10a with addition of fixed Tpc (1 μM or 2 μM) and vice versa when we titrated Tpc with addition of fixed 10a (5 μM). […] The CC50 value of Tpc decreased from 2 μM (only Tpc) to 0.7 μM (Tpc with 5 μM 10a).
as §2, with “The 50% cytotoxic concentration (CC50) was defined as the compound concentration that reduced the cell viability by 50% when compared to the untreated controls.” left out, “The measurements were carried out in three independent experiments.” left out

[4] = test system: HeLa cells; experiment: EZ4U colorimetric cytotoxicity test, HeLa; format: cell-based, human; conditions: Homo sapiens; HeLa, only Tpc
Description: as §1, §2

[5] = molecular target: T1, PARP1 (Homo sapiens, UniProt P09874); experiment: PARP1 autopoly(ADP-ribosyl)ation assay with [32P]-NAD+; format: biochemical; conditions: 0.5 mM concentration of the compound; read-out: PARP1 residual activity
T1 construct: made in house; host or cells: E. coli
T1 sequence (P09874 whole entry): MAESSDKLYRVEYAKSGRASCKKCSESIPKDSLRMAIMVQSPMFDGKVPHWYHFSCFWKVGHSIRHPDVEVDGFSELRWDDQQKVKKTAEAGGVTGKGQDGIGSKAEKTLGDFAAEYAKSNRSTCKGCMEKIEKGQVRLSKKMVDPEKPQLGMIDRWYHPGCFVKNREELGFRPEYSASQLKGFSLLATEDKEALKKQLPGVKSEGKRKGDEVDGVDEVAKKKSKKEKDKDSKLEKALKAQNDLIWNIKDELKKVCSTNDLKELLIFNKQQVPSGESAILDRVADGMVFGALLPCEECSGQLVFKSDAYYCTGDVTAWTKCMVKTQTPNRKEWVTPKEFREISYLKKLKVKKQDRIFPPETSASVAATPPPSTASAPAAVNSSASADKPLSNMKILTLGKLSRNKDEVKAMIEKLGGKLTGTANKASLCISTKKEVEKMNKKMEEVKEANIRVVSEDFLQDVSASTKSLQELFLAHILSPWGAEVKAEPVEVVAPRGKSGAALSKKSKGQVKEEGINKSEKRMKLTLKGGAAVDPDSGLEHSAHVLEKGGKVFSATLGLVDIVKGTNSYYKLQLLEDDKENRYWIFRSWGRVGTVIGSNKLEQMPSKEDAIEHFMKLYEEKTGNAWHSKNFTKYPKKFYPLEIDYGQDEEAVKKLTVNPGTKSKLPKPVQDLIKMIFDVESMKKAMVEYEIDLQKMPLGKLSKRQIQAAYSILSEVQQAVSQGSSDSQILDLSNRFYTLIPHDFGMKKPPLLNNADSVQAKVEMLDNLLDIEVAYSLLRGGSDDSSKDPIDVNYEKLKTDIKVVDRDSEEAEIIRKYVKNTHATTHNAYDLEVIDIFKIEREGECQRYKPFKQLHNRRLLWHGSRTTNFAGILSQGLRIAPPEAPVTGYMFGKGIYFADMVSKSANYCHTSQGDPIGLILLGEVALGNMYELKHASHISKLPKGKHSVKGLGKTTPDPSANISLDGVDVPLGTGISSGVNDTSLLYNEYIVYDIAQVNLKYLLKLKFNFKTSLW
Protocol: The next step of our study was to test the inhibitors for their ability to inhibit PARP1 and PARP2. UA and the 14 synthesized compounds were tested for the suppression of the ability of PARP1 and PARP2 to include a radioactive label into the acid-insoluble reaction product, poly(ADP-ribose) (PAR). […] The best effect we observed was for 9; the residual activity was 40 ± 5% under the reaction conditions (0.5 mM concentration of the compound), indicated in Materials and Methods.
(§3) Human recombinant tyrosyl-DNA phosphodiesterase 1 (TDP1) and human recombinant poly(ADP-ribose)-polymerase1 (PARP1) were expressed in the E. coli system and purified as described.
The radioactive labeled [32P]-NAD+ was synthesized from α–[32P]-ATP according to [55]. The reaction of autopoly(ADP-ribosyl)ation was carried out as follows: for PARP1, 50 mM Tris-HCl, pH 8.0, 10 mM MgCl2, 150 mM NaCl, and 7 mM β-mercaptoethanol, as well as activated DNA 2 oe/mL, 0.3 mM [^32P]-NAD+ at 37 °C. The reaction was initiated by adding PARP1 to 200 nM and the reaction mixtures were incubated for 2 min. For PARP2: 50 mM Tris-HCl, pH 8.0, 3 mM spermin, 150 mM NaCl, and 7 mM β-mercaptoethanol, as well as activated DNA 2 oe/mL, 0.6 mM [^32P] NAD+ at 37 °C. […] The incorporation of radioactivity into the product was calculated using a Typhoon FLA 9500 scanner (GE Healthcare, Chicago, IL, USA). […]

[6] = EZ4U colorimetric cytotoxicity test, HeLa; format: cell-based, human; conditions: human, HeLa cells; intrinsic cytotoxicity, compound alone, 3 days
Description: as §1, §2

[7] = molecular target: T2, TDP1 (Homo sapiens, UniProt Q9NUW8); experiment: Real-time fluorescence assay of TDP1 activity; format: biochemical; conditions: real-time fluorescent assay, 1.5 nM TDP1, 50 nM oligonucleotide; read-out: IC50 (TDP1)
T2 construct: made in house; host or cells: E. coli
T2 sequence (Q9NUW8 whole entry): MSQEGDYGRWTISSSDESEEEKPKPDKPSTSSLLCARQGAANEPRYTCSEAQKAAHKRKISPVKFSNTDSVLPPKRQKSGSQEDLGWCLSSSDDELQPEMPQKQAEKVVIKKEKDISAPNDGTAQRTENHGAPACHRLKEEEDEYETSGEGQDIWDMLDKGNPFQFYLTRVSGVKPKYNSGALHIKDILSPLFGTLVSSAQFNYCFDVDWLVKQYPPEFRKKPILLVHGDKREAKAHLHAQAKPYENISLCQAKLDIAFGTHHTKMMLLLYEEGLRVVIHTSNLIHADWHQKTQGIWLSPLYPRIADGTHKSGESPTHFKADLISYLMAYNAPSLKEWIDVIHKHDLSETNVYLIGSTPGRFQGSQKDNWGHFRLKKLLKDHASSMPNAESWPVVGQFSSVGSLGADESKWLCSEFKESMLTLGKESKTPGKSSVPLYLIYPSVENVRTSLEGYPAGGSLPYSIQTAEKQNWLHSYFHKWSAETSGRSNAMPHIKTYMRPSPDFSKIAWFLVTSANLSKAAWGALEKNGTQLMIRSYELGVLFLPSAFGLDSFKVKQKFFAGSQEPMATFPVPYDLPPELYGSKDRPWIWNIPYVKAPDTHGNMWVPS
Description: We tested UA and all 14 newly synthesized UA derivatives for their TDP1 inhibitory properties by measuring their IC50 values using a real-time fluorescent assay. […] Compounds 10a,b are sulfoxide analogs of 7g,h.
as §3
The biosensor (5′-[FAM] AAC GTC AGGGTC TTC C [BHQ]-3′) was synthesized in the Laboratory of Nucleic Acid Chemistry at the Institute of Chemical Biology and Fundamental Medicine (Novosibirsk, Russia) and was used for TDP1 enzyme activity real-time fluorescence detection. The reaction mixture (200 μL) contained a TDP1 reaction buffer (50 mM Tris-HCl, pH 8.0, 50 mM NaCl, and 7 mM β-mercaptoethanol), 50 nM oligonucleotide, varied concentrations of the tested compounds, and purified TDP1 in a final concentration 1.5 nM. The reaction mixtures were incubated at a constant temperature of 26 °C in a POLARstar OPTIMA fluorimeter (BMG LABTECH, GmbH, Ortenberg, Germany). Fluorescence intensity was measured (Ex485/Em520 nm) every 1 min for 10 min. The average values of the half maximal inhibitory concentration (IC50) were determined using an eleven-point concentration response curve and calculated using MARS Data Analysis 2.0 (BMG LABTECH). The 50% inhibitory concentration (IC50) was defined as the concentration of the compound that inhibited 50% of the enzyme activity when compared to the untreated controls. At least three independent experiments were carried out to obtain the IC50 values. To determine the kinetic parameters of the TDP1 enzymatic reaction, the apparent maximum rate of enzymatic reaction (Vmax), Michaelis constant (KM), possible inhibition mechanism, and steady-state kinetic experiments were carried out at 5 fixed concentrations of the substrate, with variation in the inhibitor concentrations. The standard reaction mixtures (200 μL) contained reaction buffer components; 50 nM, 100 nM, 200 nM, 500 nM, or 1000 nM substrate; an inhibitor; and 1.5 nM recombinant human TDP1. The initial kinetic curves were obtained in three independent experiments and statistically processed in OriginPro 8.6.0 (OriginLab, Northampton, MA, USA).

[8] = Colorimetric cytotoxicity test, HEK293FT; format: cell-based; conditions: human, HEK293FT cells, intrinsic cytotoxicity
Description: as §1, §2

Work on CC[C@@]1(O)C(=O)OCc2c1cc1n(c2=O)Cc2cc3c(CN(C)C)c(O)ccc3nc2-1 [Tpc, topotecan, reference compound] yielded a CC50 at 3 days [1] of 50 ± 5 nM, a CC50 at 3 days ([2]; wild-type HEK293A cells, WT HEK293A cells, read-out: CC50 of Tpc) of 27 ± 4 nM and a CC50 [3] of 700 nM. It also gave a CC50 [4] of 2000 nM.
With CC(=O)C1=C(O)C=C2Oc3c(C(=O)CSC(N)=O)c(O)c(C)c(O)c3[C@@]2(C)C1=O [compound 9, (2R)-4-acetyl-10-[2-(carbamoylsulfanyl)acetyl]-5,11,13-trihydroxy-2,12-dimethyl-8-oxatricyclo[7.4.0.0^2,7]trideca-1(13),4,6,9,11-pentaen-3-one] the remaining activity at 500 µM [5] was 40 ± 5%, the CC50 at 3 days ([2]; HEK293A cells, intrinsic cytotoxicity, 3 days, read-out: HEK293A CC50) was > 50000 nM and the CC50 at 3 days [6] was 13000 ± 1000 nM. For the same molecule, the IC50 [7] was 6600 ± 1000 nM and the CC50 at 3 days [8] was 7000 ± 2000 nM.
